In patent publication US20080085889A1, “Amidomethyl-Substituted 1-(Carboxyalkyl) Cyclopentyl-Carbonylamino-Benzazepine-N-Acetic Acid Compounds, Process and Intermediate Products for Their Preparation and Pharmaceutical Compositions Containing Them” (SOLVAY PHARMACEUTICALS GmbH, priority 2003, published 2008):
Like-named read-outs stand apart in the source and are kept apart here.

Experiments:
[1] = tested on: maximal SAP response to Big-ET; assay: In vivo inhibition of maximal SAP response to Big-ET in anesthetized rats after oral administration; design: species or system Rats (Sprague-Dawley); conditions: oral by gavage, 100 μmol/kg, 1 h before Big-ET challenge; mean ± standard error; negative = inhibition
Experimental: Rats (Sprague-Dawley, CRLD=Charles River) were anaesthetised with 1 ml/kg Rompun/Ketavet 1:1. A pressure transducer (Statham) was inserted into the carotid artery to measure blood pressure.
For oral testing, the substances (or vehicle) were given by gavage at doses of 100 μmol/kg each, 1 h before the Big-ET challenge, and blood pressure and heart rate were monitored as described above.
The inhibition of maximal SAP response to Big-ET in anesthetized rats following oral administration of the test substances of Formula I is set forth in the following Table 3c: […]
Data given in table 3c as negative values indicate an inhibitory effect. Values are means from 3-6 independent series of experiments ±standard error.

[2] = tested on: NEP (prepared from pig kidney cortex); assay: Enzymatic breakdown of CNP and VIP by NEP and its inhibition, in vitro, HPLC; type: biochemical
Experimental: The inhibition of the enzymatic breakdown of CNP and VIP by the compounds used according to the invention was measured in an enzymatic in vitro assay according to the following protocol:
All test compounds were dissolved in DMSO at 10 mM and further diluted with assay buffer.
80 μl of assay buffer, 10 μl of enzyme working solution (NEP or hSEP) and 10 μl of peptide stock solution (VIP or CNP) were mixed in an Eppendorf vial and incubated for 120 min. at 37° C. The enzymatic reaction was subsequently terminated by heating to 95° C. for 5 min. After centrifugation (Heraeus Biofuge B, 3 min) the supernatant was subjected to HPLC.
70 μl of assay buffer, 10 μl of enzyme working solution (NEP or hSEP) and 10 μl of a test compound solution were mixed in an Eppendorf vial and preincubated at 37° C. for 15 minutes. Then, 10 μl of peptide stock solution (VIP or CNP) was added and the reaction mixture was incubated at 37° C. for 60 min. to allow enzymatic hydrolysis. […]
All peptides were detected by absorbance at 214 nm (UV spectroscopy). The percentage (=%) of hydrolysis was calculated on the basis of the peak area of the undegraded peptide for an enzyme containing sample Y in correlation to a sample containing the same concentration of peptide without enzyme (blank) by the following equation: % hydrolysis=100*(blank−Y) […]

Compound | % substance-related inhibition of the maximum Big-ET effect on SAP vs. control [1] [%] | IC50 ([2]; substrate CNP (32-53), read-out: inhibition of breakdown of CNP by NEP, IC50) [nM] | IC50 ([2]; substrate VIP, read-out: inhibition of breakdown of VIP by NEP, IC50) [nM]
CN(C)CCCN(C)C(=O)CC(CC1(C(=O)NC2CCc3ccccc3N(CC(=O)O)C2=O)CCCC1)C(=O)O (stereo not drawn) [Example 64, 2-[(1-{[1-(carboxymethyl)-2-oxo-2,3,4,5-tetrahydro-1H-1-benzazepin-3-yl]carbamoyl}cyclopentyl)methyl]-4-{[3-(dimethylamino)propyl](methyl)amino}-4-oxobutanoic acid] | −53 ± 5 | – | –
{(3S)-3-[({1-[(2″rel1″)-2-ethoxycarbonyl)-4-(isopropylamino)-4-oxobutyl]cyclopentyl}-carbonyl)amino]-2-oxo-2,3,4,5-tetrahydro-1H-1-benzazepin-1-yl}acetic acid [Example 4] | – | 10.1 | 3.1
